Assay results: publication PMC10265003 (Royal Society Open Science, 2023)
Where two headings read alike, the source gives them in different places. Positions of bridges follow the written chain, without caps; N, C: chain ends. Non-standard residues stand in square brackets, D forms with d. Residues, ends and D or L forms follow the SMILES beside them. Chains are numbered I, II in the order given. 1Nal = N[C@@H](Cc1cccc2ccccc12)C(=O)O; hPhe = N[C@@H](CCc1ccccc1)C(=O)O; Ahx = NCCCCCC(=O)O

How the values were obtained:
trypsin = trypsin (Sus scrofa, UniProt P00761)
trypsin, sequence (P00761 9-231): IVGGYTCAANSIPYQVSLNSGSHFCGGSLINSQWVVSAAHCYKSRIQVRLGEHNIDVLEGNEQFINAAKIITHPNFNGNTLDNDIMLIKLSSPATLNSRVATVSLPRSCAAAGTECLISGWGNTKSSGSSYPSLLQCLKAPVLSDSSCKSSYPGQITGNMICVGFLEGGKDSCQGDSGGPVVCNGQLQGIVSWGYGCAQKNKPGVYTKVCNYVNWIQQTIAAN
Method: Trypsin (20 μg) was dissolved in 450 µl of the buffer supplied by the manufacturer, and 50 µl was added to each peptide solution, maintaining a protease : peptide ratio of 1 : 100 (w/w). The samples were incubated at 37°C for 24 h. Aliquots were taken at 0, 5, 10, 15 and 20 min, the enzymatic reaction was stopped by adding 1 M HCl, and the mixture was analysed via RP-HPLC and LC-MS. Bovine serum albumin (BSA) and bovine lactoferrin (bLF) were used as the positive control, and the negative control was the peptide in buffer solution without trypsin.

[1] = tested on: human primary fibroblasts; format: cell-based; conditions: for IC50 fibroblasts: 2 h
From the text: Rink amide resin, Fmoc-Arg(Pbf)-OH, Fmoc-Trp(Boc)-OH, Fmoc-Gln(Trt)-OH, Fmoc-Phe-OH, Fmoc-Lys(Boc)-OH, Fmoc-Leu-OH, Fmoc-Gly-OH, Fmoc-6-Ahx-OH, Fmoc-Lys(Fmoc)-OH, Triton-X, piperidine, N,N-dimethylformamide (DMF), dichloromethane (DCM), dicyclohexylcarbodiimide (DCC), 1-hydroxy-6-chloro-benzotriazole (6-Cl-HOBt), ninhydrin, potassium cyanide (KCN), ethanol, pyridine, phenol, trifluoroacetic acid (TFA), ethyl ether, triisopropylsilane (TIS), ethanedithiol (EDT), acetonitrile (ACN), methanol (MeOH) and solid phase extraction columns Supelco, Trypsin-EDTA solution and pepsin 2500 units mg^−1 were purchased from Sigma-Aldrich (St Louis, MO, USA). The non-natural amino acids diphenylalanine, 1-naphthyl-phenylalanine, 4-benzoyl-phenylalanine, homophenylalanine (hF), 4-(Fmoc-amino) benzoic acid (4-Abz) and 2-(Fmoc-amino) benzoic acid (2-Abz) were obtained from AAPPTec (Louisville, KY, USA). The cell lines MCF-7, HeLa, HEK-293 were purchased from ATCC (Manassas, VA). The primary cell culture of fibroblasts was obtained from the foreskin by the Laboratory of Cellular Physiology of the National University of Colombia, and the fibroblasts were cultured and frozen. Some vials were thawed and cultured for up to seven passes, since no transformation/immortalization was done. Annexin V and Alexa Fluor 488 conjugate was purchased from Invitrogen (Eugene, Oregon). The DMEM culture medium and trypsin were obtained from Sigma-Aldrich (St Louis, MO, USA). Bovine fetal serum was purchased from Gibco (Waltham, MA, USA). Calcium assay kit and Fluorescein CaspGLOW Active Caspase-8 or Caspase-9 Staining Kit were obtained for BD Biosciences (San Diego, CA, USA) and Invitrogen Thermo Fisher Scientific (Waltham, MA, USA), respectively.
(§1) The MTT assay was performed in accordance with previous reports. Briefly, the cells were seeded with a complete medium in 96-well plates at a rate of 10 000 cells and 100 µl per well, and adhesion to the plates was allowed for 24 h. Later, the complete medium was removed, and an incomplete medium was added for synchronization for another 24 h. […] Next, the peptide was removed from the well and 100 µl of incomplete medium with 10% MTT was added and incubated for 4 h. The medium was replaced with 100 µl of isopropanol, and after 30 min of incubation at 37°C, the absorbance was measured at 575 nm. As a negative control, an incomplete culture medium with 10% MTT was used, and as a positive control, cells without MTT treatment were used. The IC50 value was determined from figure 1 (peptide concentration versus per cent cell viability) using a nonlinear regression model with variable slope and GraphPad Prism 9 statistical analysis software.

[2] = tested on: HeLa human cervical cancer cell line; format: cell-based; conditions: 2 h
Method: (§2) The MTT assay was performed in accordance with previous reports. Briefly, the cells were seeded with a complete medium in 96-well plates at a rate of 10 000 cells and 100 µl per well, and adhesion to the plates was allowed for 24 h. Later, the complete medium was removed, and an incomplete medium was added for synchronization for another 24 h. The cells were then incubated at 37°C for 2 h with 100 µl of peptide at the evaluated concentrations (200, 100, 50, 25, 12.5 and 6.25 µg ml^−1). Next, the peptide was removed from the well and 100 µl of incomplete medium with 10% MTT was added and incubated for 4 h. The medium was replaced with 100 µl of isopropanol, and after 30 min of incubation at 37°C, the absorbance was measured at 575 nm. As a negative control, an incomplete culture medium with 10% MTT was used, and as a positive control, cells without MTT treatment were used. The IC50 value was determined from figure 1 (peptide concentration versus per cent cell viability) using a nonlinear regression model with variable slope and GraphPad Prism 9 statistical analysis software.

[3] = tested on: HEK-293 human kidney cell line; format: cell-based; conditions: for IC50 HEK-293: 2 h; for selectivity index IC50 HEK-293/IC50 MCF-7 / selectivity index IC50 HEK-293/IC50 HeLa: ratio of IC50 values; for selectivity index IC50 HEK-293/IC50 HeLa: in brackets
Method: as §1

CD1 mice = experiment: Peptide toxicity in vivo model (Irwin test, survival); conditions: for observed signs after ip administration (Irwin test): ip 70 mg kg^−1; for survival (%) sc: single sc dose 70 mg kg^−1, n = 3
Method: Experiment 1. CD1 mice male (eight weeks old, weighing 33–35 g) were housed in groups of six animals per cage for each peptide ^26[F] and ^26[1-Nal]; three mice were inoculated by intraperitoneal via ip, and three mice were inoculated by subcutaneous via sc. Mice inoculated via ip or sc with saline solution were used as control. The peptide was dissolved in saline solution (7 mg ml^−1) and the mice were inoculated only one time with 0.33–0.35 ml (dosage 70 mg kg^−1) via ip or sc. Experiment 2. CD1 mice female (n = 4, eight weeks old, weighing 33–35 g) were inoculated only one time with peptide ^26[F] (dosage 140 mg kg^−1) or ^26[1-Nal] (8.8 to 70 mg kg^−1).
To determine the toxicity of peptides ^26[F] and ^26[1-Nal] in vivo model, a preliminary study was carried out in CD1 male mice. The Irwin test was used to evaluate in qualitative manner the effect of peptide administration over motor functions, behaviour, physiology and pharmacological safety in rodents. This test is used as a first approach to study of the adverse effects generated by a pharmaceutical treatment in an in vivo model in preclinical test.

MCF-7 breast cancer line = format: cell-based, human; conditions: 2 h
Method: as §2

pepsin = pepsin (Sus scrofa, UniProt P00791); conditions: pH 2
pepsin, sequence (P00791 60-385): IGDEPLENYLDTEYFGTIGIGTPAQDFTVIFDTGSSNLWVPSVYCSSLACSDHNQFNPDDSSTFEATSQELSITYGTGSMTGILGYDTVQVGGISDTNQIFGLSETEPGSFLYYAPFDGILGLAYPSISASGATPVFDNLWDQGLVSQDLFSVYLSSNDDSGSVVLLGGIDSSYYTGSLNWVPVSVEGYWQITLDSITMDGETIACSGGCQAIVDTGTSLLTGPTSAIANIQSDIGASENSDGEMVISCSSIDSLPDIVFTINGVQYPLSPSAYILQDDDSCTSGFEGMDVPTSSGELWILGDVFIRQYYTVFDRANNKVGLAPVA
Method: Pepsin was dissolved in 0.010 M HCl (pH 2.0). An aliquot of 50 µl was added to each peptide solution in a 1 : 100 (w/w) ratio. The peptides were dissolved in H2O-TFA 0.05% (v/v). This was incubated at 37°C for 3 h, aliquots were taken at 0 and 3 h, and the samples were heated for 5 min and then cooled at 4°C for the thermal inactivation of pepsin and characterized via HPLC and LC-MS.

human erythrocytes = format: cell-based
Method: Haemolysis assays were performed in accordance with Cárdenas et al.. The blood was donated by healthy volunteers with blood type O^+. First, 5 ml of peripheral blood in EDTA was centrifuged at 500 r.p.m. for 15 min, and the erythrocytes were separated and washed three times with 0.9% saline solution. Then 100 µl of peptide solution (final concentrations of 200 at 6.2 µg ml^−1) was mixed with 100 µl of erythrocytes (2% haematocrit) and incubated at 37°C for 2 h. It was then centrifuged at 2500 r.p.m. for 5 min and the absorbance of the supernatant was measured at 450 nm. Two controls were used; positive control: distilled water, and negative control: saline solution 0.9%.

[4] = ratio of IC50 values, in brackets
[5] = experiment 1, male CD1 mice, single ip dose 70 mg kg^−1, n = 3, one week of observation

SMILES | proteolytic degradation by trypsin, 10 min (trypsin) | IC50 fibroblasts [1] | selectivity index IC50 fibroblasts/IC50 MCF-7 ([1]; ratio of IC50 values) | selectivity index IC50 fibroblasts/IC50 HeLa [1, 4] | IC50 HeLa [2] | IC50 HEK-293 [3] | selectivity index IC50 HEK-293/IC50 MCF-7 [3] | selectivity index IC50 HEK-293/IC50 HeLa [3] | observed signs after ip administration (Irwin test) (CD1 mice; experiment 1, male CD1 mice) | survival (%) ip (CD1 mice; [5]) | survival (%) sc (CD1 mice; experiment 1, male CD1 mice) | IC50 (MCF-7 breast cancer line) | IC50 MCF-7 (MCF-7 breast cancer line) | proteolytic degradation by pepsin (pepsin) | IC50 erythrocytes (human erythrocytes; 2 h) | selectivity index IC50 erythrocytes/IC50 MCF-7 (human erythrocytes; ratio of IC50 values) | selectivity index IC50 erythrocytes/IC50 HeLa (human erythrocytes; [4]) | further results
CC(C)C[C@H](NC(=O)[C@H](CCCCN)NC(=O)[C@H](CCCCN)NC(=O)[C@H](Cc1cccc2ccccc12)NC(=O)[C@H](CCCNC(=N)N)NC(=O)[C@H](Cc1c[nH]c2ccccc12)NC(=O)[C@H](CCC(N)=O)NC(=O)[C@H](Cc1c[nH]c2ccccc12)NC(=O)[C@H](CCCNC(=N)N)NC(=O)[C@@H](N)CCCNC(=N)N)C(=O)NCC(=O)NCCCC[C@H](NC(=O)CNC(=O)[C@H](CC(C)C)NC(=O)[C@H](CCCCN)NC(=O)[C@H](CCCCN)NC(=O)[C@H](Cc1cccc2ccccc12)NC(=O)[C@H](CCCNC(=N)N)NC(=O)[C@H](Cc1c[nH]c2ccccc12)NC(=O)[C@H](CCC(N)=O)NC(=O)[C@H](Cc1c[nH]c2ccccc12)NC(=O)[C@H](CCCNC(=N)N)NC(=O)[C@@H](N)CCCNC(=N)N)C(=O)NCCCCCC(N)=O [^26[1-Nal], (RRWQWR-1-Nal-KKLG)2-K-Ahx] (I: H-RRWQWR[1Nal]KKLGK[Ahx]-NH2 / II: H-RRWQWR[1Nal]KKLG; amide I:12-II:C) | less degradation, with the majority being intact dimeric peptide | 30(9) µg mL^−1 | 0.6 | 0.5 | 55(16) µg mL^−1 | 86(25) µg mL^−1 | 1.8 | 1.5 | motor function decreased 30 min after peptide administration and abdominal contortions were observed | 33% | 100% | 14 µM | 48(14) µg mL^−1 | unaffected | >200(>58) µg mL^−1 | > 4.1 | > 3.6 | proteolytic degradation by trypsin, 3 h (trypsin): three main species, with tR = 3.7, 5.4 min and unaffected peptide tR = 6.4 min; survival (%) ip (CD1 mice; experiment 2, female CD1 mice, single ip dose 8.8 mg kg^−1, n = 3): 100%; survival (%) ip (CD1 mice; experiment 2, female CD1 mice, single ip dose 17.5 mg kg^−1, n = 3): 100%; survival (%) ip (CD1 mice; experiment 2, female CD1 mice, single ip dose 35.0 mg kg^−1, n = 3): 100%; survival (%) ip (CD1 mice; experiment 2, female CD1 mice, single ip dose 70.0 mg kg^−1, n = 3): 100%
CC(C)C[C@H](NC(=O)[C@H](CCCCN)NC(=O)[C@H](CCCCN)NC(=O)[C@H](Cc1ccccc1)NC(=O)[C@H](CCCNC(=N)N)NC(=O)[C@H](Cc1c[nH]c2ccccc12)NC(=O)[C@H](CCC(N)=O)NC(=O)[C@H](Cc1c[nH]c2ccccc12)NC(=O)[C@H](CCCNC(=N)N)NC(=O)[C@@H](N)CCCNC(=N)N)C(=O)NCC(=O)NCCCC[C@H](NC(=O)CNC(=O)[C@H](CC(C)C)NC(=O)[C@H](CCCCN)NC(=O)[C@H](CCCCN)NC(=O)[C@H](Cc1ccccc1)NC(=O)[C@H](CCCNC(=N)N)NC(=O)[C@H](Cc1c[nH]c2ccccc12)NC(=O)[C@H](CCC(N)=O)NC(=O)[C@H](Cc1c[nH]c2ccccc12)NC(=O)[C@H](CCCNC(=N)N)NC(=O)[C@@H](N)CCCNC(=N)N)C(=O)NCCCCCC(N)=O [^26[F], (RRWQWR-F-KKLG)2-K-Ahx] (I: H-RRWQWRFKKLGK[Ahx]-NH2 / II: H-RRWQWRFKKLG; amide I:12-II:C) | disappeared completely | 121(35) µg mL^−1 | 1.5 | 5.0 | 24(7) µg mL^−1 | 203(59) µg mL^−1 | 2.6 | 8.4 | motor function decreased 30 min after peptide administration and abdominal contortions were observed | 100% | 100% | 23 µM | 79(23) µg mL^−1 | degraded into two fragments | >200(>58) µg mL^−1 | > 2.5 | > 8.3 | proteolytic degradation by trypsin, 5 min (trypsin): two fragments were also generated; survival (%) ip (CD1 mice; experiment 2, female CD1 mice, single ip dose 140.0 mg kg^−1, n = 4): 0%; observed signs after ip administration (CD1 mice; female mice, ip 140 mg kg^−1, after 30 min of treatment): decreased motor function, abdominal contractions, excess irrigation, marked ataxia and loss of coordination
CC(C)C[C@H](NC(=O)[C@H](CCCCN)NC(=O)[C@H](CCCCN)NC(=O)[C@H](CCc1ccccc1)NC(=O)[C@H](CCCNC(=N)N)NC(=O)[C@H](Cc1c[nH]c2ccccc12)NC(=O)[C@H](CCC(N)=O)NC(=O)[C@H](Cc1c[nH]c2ccccc12)NC(=O)[C@H](CCCNC(=N)N)NC(=O)[C@@H](N)CCCNC(=N)N)C(=O)NCC(=O)NCCCC[C@H](NC(=O)CNC(=O)[C@H](CC(C)C)NC(=O)[C@H](CCCCN)NC(=O)[C@H](CCCCN)NC(=O)[C@H](CCc1ccccc1)NC(=O)[C@H](CCCNC(=N)N)NC(=O)[C@H](Cc1c[nH]c2ccccc12)NC(=O)[C@H](CCC(N)=O)NC(=O)[C@H](Cc1c[nH]c2ccccc12)NC(=O)[C@H](CCCNC(=N)N)NC(=O)[C@@H](N)CCCNC(=N)N)C(=O)NCCCCCC(N)=O [^26[hF], (RRWQWR-hF-KKLG)2-K-Ahx] (I: H-RRWQWR[hPhe]KKLGK[Ahx]-NH2 / II: H-RRWQWR[hPhe]KKLG; amide I:12-II:C) | two fragments were also generated | 63(19) µg mL^−1 |  |  | 53(16) µg mL^−1 | 134(40) µg mL^−1 |  |  |  |  |  | 18 µM | 60(18) µg mL^−1 | unaffected | >200(>59) µg mL^−1 |  |  | selectivity index IC50 fibroblasts/IC50 HeLa [1]: 1.2; selectivity index IC50 fibroblasts/IC50 MCF-7 [1]: 1.0; selectivity index IC50 erythrocytes/IC50 HeLa (human erythrocytes; 2 h): > 3.7; selectivity index IC50 erythrocytes/IC50 MCF-7 (human erythrocytes; 2 h): > 3.3
